Values of other authors in patent US20080051430A1, “Acylated Piperidine Derivatives as Melanocortin 4-Receptor Agonists” (priority 2004, published 2008).

What was measured:
[1] = system: men with a variety of organic risk factors; conditions: subcutaneous injection; compared with placebo
[2] = system: males with psychogenic erectile dysfunction
[3] = in vivo, po

## Ac-Nle-c[Asp-His-DPhe-Arg-Trp-Lys]-NH2 [MT-II]
[1]
  level of sexual desire: significantly higher
[2]; in vivo
  duration of action: approximately 2.5 hours
  time to onset of erection: 10 to 20 min
[2]; injected intramuscularly or subcutaneously
  response rate: 75%
[3]
  absorption into the systemic circulation: not absorbed into the systemic circulation
